# Experiments:
# [1] = HA binding onto liposomes presenting the aminooxy group vs. the amino group (gel chromatography, fluorimetry); settings: incubated in 10 mM citric acid; lipid incorporated in liposomes
# Procedure: Methods: Liposomes presenting the aminooxy group were prepared by the procedure described in Example 15, containing 1% aminooxylipidid of general formula I (according to Example 14) at a starting concentration of 10 mg/ml PBS. The amino group-presenting liposomes were prepared by the same technique with the amino group-containing lipid DOPE. These liposomes at a starting concentration of 10 mg/ml PBS were mixed with fluorescently labelled HA (Sigma-Aldrich) at a concentration of 1 mg/ml PBS in a ratio of 1 mg total lipid to 0.1 mg HA. Incubation takes place for at least 30 minutes at room temperature (see Example 19). Both samples were incubated in 10 mM citric acid. Unbound HA was removed on a Superose 6 column (200 μl spraying buffer, flow rate of the first milliliter was 0.1 ml/min, then 0.3 ml/min, collection of 1 ml fractions). Fluorescence was measured using a Perkin Elmer fluorimeter at appropriate wavelengths (excitation for FITC-HA was 490 nm, emission 505 nm).
# [2] = tested on: T-lymphocytes; assay: Cytotoxicity of liposomes: apoptotic cells detected with Annexin V by flow cytometry; type: cell-based; settings: aminooxylipid incorporated into liposomal bilayer
# Procedure: (§1) Methods: The cytotoxicity of liposomes prepared as described in Example 15 is determined by comparing the cytotoxicity of EPC liposomes and EPC liposomes with an incorporated aminooxylipid of general formula I (according to Example 12, 13 or 14) in in vitro experiments with T-lymphocytes and on H1299 cells of lung carcinoma cell line.
# (§2) Measurements were performed on a flow cytometer Fortessa (Becton Dickinson). Apoptotic cells were detected and quantified using the fluorescent dye Annexin V (Invitrogen).
# (§3) In all experiments, 500 μl media per well were used and lipid content was 100 μg per 1 ml of the medium. Unmodified liposomes and liposomes modified post-liposomally with hyaluronic acid were incubated. In Experiment 1, H1299 cells of lung carcinoma were incubated for 30 minutes at 4° C. In Experiment 2, T-lymphocytes were used and incubated at room temperature in a rotator. In Experiments 3 and 4, H1299 cells of lung carcinoma cell line were used and incubated for 2 hours in a CO2 incubator (37° C., 5% CO2). In Experiment 5, H1299 cells of lung carcinoma were used. These cells were incubated for 30 minutes at 4° C. in a refrigerator.
# [3] = tested on: H1299 cells of lung carcinoma cell line; assay: as above; type: cell-based; settings: aminooxylipid incorporated into liposomal bilayer
# Procedure: as §1, §2, §3
# [4] = Size, PDI and zeta-potential of liposomes by DLS (Nanosizer ZS); type: physicochemical; settings: for Effect of incorporation into liposomes on the final distribution of liposomes: 99% EPC, 1% aminooxylipid; for Zeta potential: liposomes containing 1% aminooxylipid in PBS solution with neutral pH
# Procedure: Methods: Liposomes with incorporated aminooxylipids were prepared by phospholipid film hydration. All lipids were dissolved in chloroform at a concentration of 10 mg of lipid/1 ml chloroform at a molar ratio of 99% EPC to 1% aminooxylipids of general formula I (according to Examples 12, 13 and 14). The chloroform solution was evaporated in a globular flask on a rotary evaporator; pressure: 100 hPa, water bath temperature: 37° C., 90 revolutions/minute). The resulting lipid film was hydrated with PBS (pH 7.2, 0.14M NaCl, 20 mM Na-phosphate) to a final concentration of 10 mg/ml. The liposomes were then extruded through Nucleopore polycarbonate filters with 400 and 100 nm pore size. The size and zeta-potential were measured using a Nanosizer ZS (Malvern, UK) in a DTS cell, Attenuator value 4, 25° C. […] Example with a lipid of general formula I (according to Example 12): EPC liposomes: size 82 nm, PDI 0.11; EPC+ aminooxylipid 1%: size 81 nm, PDI 0.1.
# DLS measurements were carried out under the same conditions as in Example 15.
# Methods: The liposomes prepared as described in Example 15, containing 1% aminooxylipidid of general formula I (according to Example 14) at a starting concentration of 10 mg/ml PBS were mixed with a mannan solution in PBS in a ratio of 1 mg total lipid to 0.1 mg mannan. The reaction was carried out at room temperature. Low molecular weight components and unbound mannan were removed by gel chromatography on a Superose 6 column. The mannan binding onto the liposomal surface was confirmed by: a) scanning and transmission electron microscopy; b) the change in liposome size was determined by the DLS technique (Zetasizer ZS, Malvern UK). The polysaccharide mannan was isolated from the yeast Candida albicans. The size of the molecules of mannan and liposomes was measured by DLS. […] Dendritic cells were prepared by culture from peripheral blood of healthy donors. Their stimulating activity was compared with lipopolysaccharide activity (LPS, standard Salmonella minnesota).
SMILES,"HA remaining bound after acidification, % of the original HA [1]",Cytotoxicity of EPC liposomes with incorporated aminooxylipid vs. EPC liposomes [2],Cytotoxicity of EPC liposomes with incorporated aminooxylipid vs. EPC liposomes [3],Effect of incorporation into liposomes on the final distribution of liposomes ([4]; Example 15),"PDI ([4]; Example 15, EPC liposomes without or with 1% aminooxylipid, PBS)","size ([4]; Example 15, EPC liposomes without or with 1% aminooxylipid, PBS, extruded 400 and 100 nm)",Zeta potential [4],"size (size distribution, particle numbers) ([4]; Example 20, FIG. 3, liposomes with 1% aminooxylipid, alone or coupled with IgY)"
"CCCCCCCC/C=C\CCCCCCCC(=O)OC[C@H](COP(=O)(O)OCCN)OC(=O)CCCCCCC/C=C\CCCCCCCC [DOPE, 1,2-dioleoyl-sn-glycero-3-phosphoethanolamine, reference compound]",20%,–,–,–,–,–,–,–
"CCCCCCCCCCCCCCC(CCCCCCCCCCCCCC)C(=O)NCCNC(=O)CON.O=C(O)C(F)(F)F [Example 12, N^1-(2-tetradecylhexadecanoyl)-N^2-amoniumoxyacetyl-1,2-diaminoethane-trifluoroacetate]",–,does not result in an increase in their cytotoxicity,does not result in an increase in their cytotoxicity,no significant effect,0.1,81 nm,around 0 mV,–
"CCCCCCCCCCCCCCC(CCCCCCCCCCCCCC)C(=O)NCCCNC(=O)CON.O=C(O)C(F)(F)F [Example 13, N^1-(2-tetradecylhexadecanoyl)-N^3-amoniumoxyacetyl-1,3-diaminopropane-trifluoracetate]",–,does not result in an increase in their cytotoxicity,does not result in an increase in their cytotoxicity,no significant effect,–,–,around 0 mV,–
"CCCCCCCCCCCCCCC(CCCCCCCCCCCCCC)C(=O)NCOC(CCOCC)NC(=O)CON.O=C(O)C(F)(F)F (centres unmarked) [Example 14, N^1-(2-tetradecylhexadecanoyl)-N^3-amoniumoxyacetyl-1,3-diamino-2,6-dioxaoctane-trifluoracetate]",did not change due to acidification,does not result in an increase in their cytotoxicity,does not result in an increase in their cytotoxicity,no significant effect,–,–,around 0 mV,107 nm

# — patent US11492327B2, “Aminooxylipids for the construction of self-assembling liposomal systems enabling their subsequent modification by biologically functional molecules” (VYSOKA SKOLA CHEMICKO-TECHNOLOGICKA V PRAZE, priority 2016, dated 2022)
